Experiments:
[1] = test system: recurrent migraine headaches; test: Oral levetiracetam as a prophylactic agent, small-scale open-label trial; type: in vivo; conditions: chronic daily oral treatment, 250 to 750 mg tablets; substantial fraction of patients
Excerpt: A limited number of patients who were being treated by the Applicant for recurrent migraine headaches were placed on a regimen of daily oral levetiracetam, in a small-scale open-label trial. […] In general, the recurrent migraine patients who were chosen for this type of experimental trial were those who had not responded adequately to various other known candidate treatments. Patients kept daily records of the frequency of their migraine headaches, and also kept logs that recorded the severity of each headache, on a subjective scale of 1 to 10, with 1 being mild, and 10 being extremely intense pain.

[2] = over a wide dose range; cited from earlier work
[3] = test system: intractable migraine headache; test: Injectable (intravenous) levetiracetam for acute migraines, open-label study; type: in vivo, patients
Protocol: Sterile, preservative-free liquid preparations of levetiracetam, at concentrations of 200 mg/ml or 400 mg/ml, was prepared in a laminar flow hood by a compounding pharmacist. Particulate matter was filtered out through a series of filtrations and the solution was stabilized at a pH of 6.0. The resulting solution was clear. 29 patients were treated (19 female and 10 male), and a total of 42 intractable migraines were treated in this study. Their age range was 26 to 59 (mean age, 44 years). All patients had failed treatment with their usual migraine-specific or abortive therapies. Most patients (n=24) were in the second or third day of intractable migraine headache. 5 patients were treated on more than one occasion (1 patient was treated 6 separate times; 1 patient, 5 times, 1 patient, 3 times; and 2 patients, twice each). 6 patients (21%) were already on levetiracetam orally at the time of intravenous treatment. 23 were naive to levetiracetam at the time of treatment. Patients were treated in the setting of a headache clinic. An antecubital line was started and pulse oximetry monitoring was employed throughout treatment. No other medications were given orally or intravenously to treat the migraine. In a typical treatment for a first-time patient, a test dose of 400 mg levetiracetam was given, and then 400-600 mg was given every 5 minutes, until maximum effect was reported by the patient. The average dosage given intravenously was 5940 mg (range 400 to 16,000 mg). The average time to best response after treatment was 66 min (range=20-120 min). Prior to treatment, migraine severity (reported by each patient on a 0 to 10 numeric rating scale (NRS), with 10 representing the absolute worst possible pain) was 8.4. After treatment, it was 1.6, which represents a mean reduction of 81% in migraine severity. 16 patients (55%), representing 21 of 42 episodes, had complete resolution of their ongoing migraine, to a reported severity of zero. Only one patient had no reported response to the treatment.

[4] = test system: epileptic seizures; conditions: taken chronically; patients who suffer from frequent seizures; cited from earlier work

For CC[C@@H](C(N)=O)N1CCCC1=O [levetiracetam], the “reduced frequency and/or reduced severity of migraine headaches” value [1] is given as “substantial benefits”, the tolerability / toxicity [2] is given as “well tolerated over a wide dose range with no apparent toxicity” and the “episodes with complete resolution of ongoing migraine” value ([3]; intravenous) is given as 21 of 42 episodes. The side effects ([3]; intravenous) was “minimal”, the “time to best response after treatment, range” value ([3]; intravenous, 29 patients, 42 migraines) was 20 to 120 min and the “mean reduction in migraine severity” value ([3]; intravenous, NRS 8.4 prior to treatment vs 1.6 after) was 81%. For the same compound, the “average time to best response after treatment” value ([3]; intravenous, average dosage 5940 mg, 29 patients, 42 migraines) was 66 min, the “time until side effects dissipated spontaneously” value ([3]; intravenous, nausea and drowsiness) was 30 to 90 min and the patients reporting drowsiness ([3]; intravenous, of 29 patients) was 2 patients. The “patients reporting transient nausea” value ([3]; intravenous, of 29 patients) was 3 patients, the “patients with complete resolution of ongoing migraine, to a reported severity of zero” value ([3]; intravenous, of 29 patients) was 16 patients and the “patients with no reported response to the treatment” value ([3]; intravenous, of 29 patients) was “one”. For the same compound, the “share of patients with complete resolution of ongoing migraine” value ([3]; intravenous, of 29 patients) was 55%, the “migraine severity after treatment (0 to 10 numeric rating scale, NRS)” value ([3]; intravenous, severity prior to treatment was 8.4) was 1.6 and the “outcome in patient treated for a combination of cluster headaches and migraines” value ([3]; one patient) was “resolution of both”. The “reduction of the frequency of epileptic seizures” value [4] was 15 to 30%.

— patent publication US20040116506A1, “Use of levetiracetam for treating or preventing acute headaches” (priority 2002, published 2004)
